Assay results from ChEMBL document CHEMBL2390855, “Labdane-type diterpenoids from the fruits of Vitex trifolia” (J Nat Prod, 2013).

Experiments:
Type in all cases: functional, cell-based
[1] = tested on: ZR-75-30; assay: Cytotoxicity against human ZR75-30 cells after 72 hrs by MTT assay; conditions: ZR-75-30, 72 h
[2] = tested on: HL-60; assay: Cytotoxicity against human HL60 cells after 72 hrs by MTT assay; conditions: HL-60, 72 h
[3] = tested on: A549; assay: Cytotoxicity against human A549 cells after 72 hrs by MTT assay; conditions: A549, 72 h
[4] = tested on: HCT-116; assay: Cytotoxicity against human HCT116 cells after 72 hrs by MTT assay; conditions: HCT-116, 72 h

Measured: IC50

C[C@@H]1C[C@@H](O)[C@H]2C(C)(C)CCC[C@]2(C)[C@@]1(O)CCC1=CC(=O)OC1
> 5 µg/mL: [1] | [2] | [3] | [4]

CC1=C(CC[C@@H](C)C(=O)CCC2=CC(=O)OC2)C(C)(C)CCC1
> 5 µg/mL: [1] | [2] | [3] | [4]

CO[C@@H]1C[C@@]2(CC[C@@]3(O2)[C@H](C)CC[C@H]2C(C)(C)[C@@H](OC(C)=O)CC[C@@]23C)[C@H](OC)O1 (relative stereo)
> 5 µg/mL: [1] | [2] | [3] | [4]

CC(=O)O[C@@H]1CC(C)=C(CCC2=CC(=O)OC2)[C@@]2(C)CCCC(C)(C)[C@H]12 (relative stereo)
> 5 µg/mL: [1] | [2] | [3] | [4]

C[C@@H]1CC=C2C(C)(C)CCC[C@]2(C)[C@@]1(O)CCC1=CC(=O)OC1 (relative stereo)
> 5 µg/mL: [1] | [2] | [3] | [4]

C[C@@H]1C[C@@H](O)[C@H]2C(C)(C)CCC[C@]2(C)[C@@]12CC[C@]1(COC(=O)C1)O2 (relative stereo)
> 5 µg/mL: [1] | [2] | [3] | [4]

C[C@@H]1CC=C2C(C)(C)CCC[C@]2(C)[C@@]12CC[C@]1(COC(=O)C1)O2 (relative stereo)
> 5 µg/mL: [1] | [2] | [3] | [4]

CC(=O)O[C@@H]1C[C@@H](C)[C@]2(CC[C@]3(COC(=O)C3)O2)[C@@]2(C)CCCC(C)(C)[C@H]12 [PREVITEXILACTONE]
> 5 µg/mL: [1] | [2] | [3] | [4]

CC(=O)O[C@@H]1C[C@@H](C)[C@](O)(CCc2ccoc2)[C@@]2(C)CCCC(C)(C)[C@H]12 [ROTUNDIFURAN]
> 5 µg/mL: [1] | [2] | [3] | [4]

CC(=O)O[C@@H]1C[C@@H](C)[C@](O)(CCC2=CC(=O)OC2O)[C@@]2(C)CCCC(C)(C)[C@H]12 (stereo partly drawn) [VITEAGNUSIN I]
> 5 µg/mL: [1] | [2] | [3] | [4]

CC(=O)O[C@@H]1C[C@@H](C)[C@](O)(CCC2=CC(=O)OC2)[C@@]2(C)CCCC(C)(C)[C@H]12 [VITEXILACTONE]
> 5 µg/mL: [1] | [2] | [3] | [4]

CO[C@H]1C[C@@]2(CC[C@@]3(O2)[C@H](C)CC[C@H]2C(C)(C)[C@@H](OC(C)=O)CC[C@@]23C)[C@H](OC)O1 [VITEXTRIFOLIN B]
> 5 µg/mL: [1] | [2] | [3] | [4]
